According to US11433033B2, “2,4-dinitrophenol formulations and methods using same” (priority 2013, dated 2022):
“Also recorded” adds a separate entry of the source. Read-outs that look alike come from different tables or passages of the source.

Tests used:
[1] = tested on: rat model of NAFLD and whole body insulin resistance; assay: Continuous low dose intragastric DNP infusion (2 mg/kg per day, 5 days) in high fat fed rats; type: in vivo
Procedure: For the intragastric DNP infusion studies, rats previously fed high fat diet for 2 weeks were placed in a Covance infusion harness attached to a single-axis counter-balanced swivel mount and a stainless steel one-channel swivel (all from Instech Solomon) to protect the catheters and allow the animals free access to the cage. DNP (2 mg/kg per day) or vehicle (10% dimethylsulfoxide/90% saline vehicle) was infused continuously through the […] for 5 days.
Plasma insulin and glucagon were measured by radioimmunoassay. Plasma glucose was measured enzymatically by the YSI Life Sciences 2700 Select Biochemistry Analyzer. Plasma concentrations of twelve inflammatory markers, adiponectin, and FGF-21 were assessed by ELISA (QIAGEN, Life Technologies, and Millipore, respectively). Liver glycogen was measured by amyloglucosidase digestion (Passonneau & Lauderdale, 1974, Anal. Biochem. 60:405-12). Non-esterified fatty acid concentrations were measured by an enzymatic kit (Wako).
(§1) Plasma triglycerides were measured using a Wako reagent. Liver and quadriceps triacylglycerol were extracted using the method of Bligh and Dyer (Bligh & Dyer, 1959, Can. J. Biochem. Physiol. 37:911-7) and quantified spectrophotometrically using a reagent from Diagnostic Chemicals Ltd. Liver and quadriceps DAG and ceramide concentrations were measured by liquid chromatography/mass spectrometry/mass spectrometry (LC/MS/MS) (Yu, et al., 2002, J. Biol. Chem. 277:50230-6), as were acylcarnitine concentrations (An, et al., 2004, Nat. Med. 10:268-74). Very low-density lipoprotein (VLDL) export was measured (Lee, et al., 2011, Hepatology 54:1650-60). Liver acetyl and malonyl CoA concentrations were measured by LC/MS/MS (Hosokawa, et al., 1986, Anal. Biochem. 153:45-9; Roughan, 1994, Biochem. J. 300:355-8).

in vivo [2] = type: in vivo, Sprague-Dawley rats; settings: for concentration at 5 days: Sprague-Dawley, rat, in vivo, 2 mg/kg per day
in vivo [3] = type: in vivo, Sprague-Dawley rats
Procedure: Rats consumed the concentrations of DNP or ERDNP specified in the text orally, mixed in peanut butter. All rats used for the kinetics studies consumed the entirety of the peanut butter and protonophore within 2 minutes.
DNP concentrations were measured in plasma, liver, kidney, WAT, quadriceps, heart, and brain of Sprague-Dawley rats by LC/MS/MS (Perry, et al., 2013, Cell. Metab. 18:740-8). Rats treated with DNP were sacrificed 1 hour after treatment with DNP, and those treated with ERDNP were sacrificed 8 hours after treatment, as these were the times determined in the plasma DNP studies to represent the peak plasma DNP concentrations (FIGS. 21A-21B). The minimal detection limit of the method was determined to be […], as this was the minimum concentration of solutions of known quantities of DNP in DMSO measured by the method with less than 20% error in each of three replicates.
LC/MS/MS method development and analysis were performed on the Applied Biosystems 4000 QTRAP (Foster City, Calif.), equipped with a Shimadzu ultra fast liquid chromatography (UFLC) system. Electrospray ionization (ESI) source with negative-ion detection was shown as the most sensitive for both qualitative and quantitative analysis of DNP. The quantitative analysis of DNP was monitored in MRM mode with an ion pair (183.0/109.0). The preferred parameters are: curtain gas 25; collision gas 9, probe temperature 480° C.; […]; ion source gas 2 25; declustering potential (DP) −45 V; entrance potential (EP) −10 V; collision energy (CE) −35 V and collision cell exit potential −12 V.
Plasma samples (10-100 μL) were mixed with 2.0 ml pre-chilled chloroform/methanol (v/v: 2/1) containing 0.01% BHT in 5 ml glass vials, to which was added 250 μl water together with 10 nmol DNP-D3 and 10 nmol DNPME-D6 as the internal standards. The mixtures were vortexed for 10 seconds before centrifugation at 4000 rpm for 10 min. The bottom organic layer was carefully collected and dried with a steady stream of nitrogen gas. The residual was reconstituted in 200 μl methanol for LC/MS/MS analysis for DNP and/or DNPME metabolites.
Frozen tissue samples (˜100 mg) were weighed and suspended in 2 ml microcentrifuge tubes with 1.6 ml pre-chilled chloroform/methanol (v/v: 2/1) containing 0.01% BHT and one metal bead, and then added 10 nmol DNP-d3 (Cambridge Isotopes, Andover, Mass.) as the internal standards. The tissue samples were disrupted with Qiagen TissueLyser at 30 Hz for 15 min, and then transferred into 5 ml glass vials, followed by addition of 0.5 ml chloroform and 250 μl water into each samples. The samples were centrifuged at 4000 rpm for 10 min after vortexed for 10 seconds. The bottom organic layer was collected and dried with a gentle flow of nitrogen. The residual was reconstituted in 200 μl methanol for LC/MS/MS analysis of DNP.

[4] = tested on: two-week high fat fed rats; type: in vivo, rat
Procedure: ERDNP was formulated by Emerson Resources Inc. (Malvern, Pa.) with sustained-release ethylcellulose coating. Rats used for the NAFLD reversal studies were fed high fat diet for 2 weeks, at the end of which they were treated for three days with peanut butter to acclimate them to this food. They were then treated daily with ERDNP mixed in peanut butter, or peanut butter vehicle, at the doses specified in the text daily for 5 days. Zucker Diabetic Fatty rats were treated with ERDNP (1 mg/kg) in peanut butter or peanut butter vehicle daily for 14 days. Blood glucose was measured by glucometer (Abbott) from the tail vein every three days.
(§2) Alanine aminotransferase, aspartate aminotransferase, and blood urea nitrogen were measured using the COBAS Mira Plus, and creatinine by LC/MS/MS. Body temperature was measured using a rectal probe (Physitemp Instruments). Histology slides were stained with hematoxylin & eosin, Sirius Red, and TUNEL stains.
as §1

high fat fed rats = assay: Hepatic fluxes (VTCA, VPC, Vfa, VPDH) by [3-13C] lactate infusion, NMR-LC/MS/MS; settings: rat, in vivo
Procedure: To measure total glutamate enrichment from livers of rats infused with [3-^13C] lactate, ˜100 mg frozen liver were homogenized in 400 μL ice-cold 50% acetonitrile. The samples were centrifuged at 10,000 g for 10 min, and the supernatant was isolated. After overnight storage at 4° C., the samples were centrifuged at 10,000 g for 10 min through a Nanosep 100 k Omega filter (Pall Life Sciences). The flow-through was separated on a hypercarb column (Thermo Scientific; 4.6×100 mm; 5 μm particle size) before ionization for multiple reaction monitoring analysis by LC/MS/MS (Applied Biosystems MDS SCIEX, 4000 Q-TRAP). […]
Spectra were acquired with relaxation time=1 s, dummy scans=32, and number of scans=8,192 per block×3 blocks. Correction factors for differences in T relaxation times were determined from fully relaxed spectra of natural abundance glutamate and glucose solutions. […]
Total glucose enrichment in the NMR extract was determined by derivatizing 20 μL of the NMR extract with 100 μL methanol, then drying overnight in a Speed-Vac. […]
To measure positional alanine enrichment from [3-^13C] lactate infused rat livers, liver samples were extracted for NMR as described above, and the enrichment at [2-^13C] and [3-^13C] alanine was measured by proton-observed, carbon-edited NMR as we have reported (Alves et al., 2011, Hepatology 53:1175-1181). […]

rats = assay: Toxicity studies: rectal temperature, liver enzymes, BUN, creatinine, histology; type: in vivo, rat
Procedure: as §2
Liver and kidney samples were prepared and stained with hematoxylin & eosin by the Yale Research Histology core, and analyzed as described (Kleiner et al., 2005, Hepatology 41:1313-1321).

[5] = intragastric DNP 2 mg/kg per day, 5 days

O=[N+]([O-])c1ccc(O)c([N+](=O)[O-])c1 [DNP, 2,4-dinitrophenol]
liver enzymes, blood urea nitrogen (BUN) or creatinine ([1]; chronic intragastric DNP infusion 2 mg/kg per day): no observed changes
fasting plasma glucose and insulin concentrations [1, 5]: lower
reductions in liver and muscle TAG and diacylglycerol (DAG) content [1, 5]: > 50%
reductions in plasma triglycerides [1, 5]: > 80%
tissue ceramide content [1, 5]: no changes
concentration at 5 days (in vivo [2]; intragastric DNP infusion 2 mg/kg per day, 5 days, rats, read-out: steady state liver DNP concentration): ~1000 nM
concentration at 5 days (in vivo [2]; intragastric DNP infusion 2 mg/kg per day, 5 days, rats, read-out: steady state plasma DNP concentration): ~3000 nM
sustained plasma and tissue concentrations of DNP that reversed hepatic steatosis and insulin resistance (in vivo [2]; continuous intragastric DNP infusion, rat model of NAFLD): 1-3 VM
plasma DNP concentrations, fold lower than the threshold where DNP toxicity is first detected (in vivo [2]; continuous low dose intragastric infusion of DNP): ~100 fold
sustained plasma and liver concentrations of DNP that reversed fatty liver and whole body insulin resistance (in vivo [2]; continuous low dose intragastric infusion, high fat rat model of NAFLD): 1 to 3 µM
DNP concentration in skeletal muscle (in vivo [2]; intragastric DNP infusion 2 mg/kg per day, 5 days, rats): negligible
tissue DNP concentrations after chronic treatment compared with one (or five) daily doses (in vivo [3]; 1 mg/kg per day, rats): no differences; also recorded: did not differ significantly
maximum plasma concentration of DNP, fold higher with DNP treatment than with ERDNP (in vivo [3]; 25 mg/kg DNP versus 1 mg/kg ERDNP): 30 fold
concentration at 8 hours (in vivo [3]; Sprague-Dawley, rat, in vivo, 1 mg/kg, 8 hours after the last of five daily 1 mg/kg doses (FIG. 21J), read-out: DNP concentrations in all tissues following chronic treatment): < 10000 nM
half-life (in vivo [3]; Sprague-Dawley, rat, in vivo, 25 mg/kg, plasma DNP, rats): 8 to 12 h
peak DNP liver concentration (in vivo [3]; dose of DNP 5 mg/kg, rat): ~60 µM
peak plasma DNP concentration (in vivo [3]; dose of DNP 5 mg/kg, rat): ~120 µM
area under the plasma DNP concentration curve (in vivo [3]; oral, rats, 1 mg/kg ERDNP versus 25 mg/kg DNP): 4,311±555
time of maximum concentration of DNP (in vivo [3]; plasma, rats, 1 mg/kg ERDNP versus 25 mg/kg DNP): one
daily doses that raised ALT ([4]; daily for five days): above 2 mg/kg
daily doses that raised AST concentrations ([4]; daily for five days): above 1 mg/kg
effect of the highest dose on BUN ([4]; daily for five days): raised BUN
lowest effective dose to decrease liver triglyceride ([4]; daily for five days, two-week high fat fed rats): 5 mg/kg
ratio of toxic to therapeutic dose ([4]; rats): 0.4
toxic dose ([4]; rats): 2 mg/kg
concentrations of DNP found to promote subtle increases in hepatic mitochondrial uncoupling (high fat fed rats): 1 to 5 µM
toxic plasma threshold of DNP (rats; plasma concentration): ~400 µM
relation between plasma DNP concentration and body temperature (rats; rats treated with 10-50 mg/kg DNP): strong correlation
